Measurements taken from patent publication US12030940B2, “Immunotherapeutic tumor treatment method” (Nektar Therapeutics, priority 2017, dated 2024).

Tested on: B16F10 mouse melanoma tumors
Assay: Immune cells in tumor microenvironment by flow cytometry, subcutaneous B16F10 melanoma mice
Assay type: in vivo

aldesleukin
activated natural killer (NK) cells (5 and 7 days after treatment initiation): increased | ratio of CD8/Treg in the tumor (by day 7, single dose RSLAIL-2 or 5 doses aldesleukin): 18 | total and memory CD8 T cells as percentage of tumor-infiltrating lymphocytes (relative to vehicle): transient | percentage of Tregs (FoxP3+ subset of CD4) in tumor (relative to vehicle, days 5, 7, 10): modest
